From patent US20260262643A1, “HERBICIDAL BENZOXAZINES” (FMC CORPORATION, priority 2022, published 2026)

Key:
green foxtail [1] = assay: Test C postemergence; assay type: in vivo, Setaria viridis; conditions: 10 days
Summary of the method: (§1)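 Visual injury score, 0–100 (100 = complete control), taken 10 days after treatment relative to untreated controls. Pre: directed spray onto soil over sown seeds. Post: foliar spray at one- to two-leaf stage, 2–10 cm. Solvent/surfactant formulation; loam–sand soil; greenhouse.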

corn [2] = assay: Test C postemergence; assay type: in vivo, Zea mays; conditions: 500 g ai/ha, 10 days
Summary of the method: as §1

corn [3] = assay: Test C preemergence; assay type: in vivo, Zea mays
Summary of the method: as §1

ryegrass, Italian [4] = assay: Test C preemergence; assay type: in vivo, Lolium multiflorum; conditions: for Plant response rating, Ryegrass, Italian: Preemergence
Summary of the method: as §1

horseweed = assay: Test C postemergence; assay type: in vivo, Erigeron canadensis; conditions: 10 days
Summary of the method: as §1

kochia [5] = assay: Test C preemergence; assay type: in vivo, Bassia scoparia; conditions: for Plant response rating, Kochia: Preemergence
Summary of the method: as §1

rice = assay: Test D flooded paddy test; assay type: in vivo, Oryza sativa; conditions: 250 g ai/ha, applied to paddy water, visual rating after 13 to 14 days, scale 0 to 100 (0 no effect, 100 complete control)
Summary of the method: (§2)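 Plants grown to the 2-leaf stage; pots flooded to 3 cm above soil at treatment and held at that depth throughout. Test compounds applied directly to the paddy water. After 13 to 14 days in a greenhouse, response was rated visually versus controls on a 0 (no effect) to 100 (complete control) scale.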

wheat = assay: Test C preemergence; assay type: in vivo, Triticum aestivum
Summary of the method: as §1

oat, wild [6] = assay: Test C preemergence; assay type: in vivo, Avena fatua
Summary of the method: as §1

oat, wild [7] = assay: Test C postemergence; assay type: in vivo, Avena fatua; conditions: 500 g ai/ha, postemergence, 10 days, 0 to 100 scale (0 no effect, 100 complete control)
Summary of the method: as §1

ragweed [8] = assay: Test C preemergence; assay type: in vivo, Ambrosia artemisiifolia; conditions: for Plant response rating, Ragweed: Preemergence
Summary of the method: as §1

green foxtail [9] = assay: Test C preemergence; assay type: in vivo, Setaria viridis; conditions: for Plant response rating, Foxtail, Green: Preemergence
Summary of the method: as §1

soybean = assay: Test C preemergence; assay type: in vivo, Glycine max
Summary of the method: as §1

pigweed, palmer [10] = assay: Test C preemergence; assay type: in vivo, Amaranthus palmeri; conditions: for Plant response rating, Pigweed, Palmer: Preemergence
Summary of the method: as §1

pigweed, palmer [11] = assay: Test C postemergence; assay type: in vivo, Amaranthus palmeri; conditions: 10 days
Summary of the method: as §1

ducksalad = assay: Test D flooded paddy test; assay type: in vivo, Heteranthera limosa; conditions: 250 g ai/ha, applied to paddy water, visual rating after 13 to 14 days, scale 0 to 100 (0 no effect, 100 complete control)
Summary of the method: as §2

sedge, umbrella = assay: Test D flooded paddy test; assay type: in vivo, Cyperus difformis; conditions: 250 g ai/ha, applied to paddy water, visual rating after 13 to 14 days, scale 0 to 100 (0 no effect, 100 complete control)
Summary of the method: as §2

barnyardgrass [12] = assay: Test C preemergence; assay type: in vivo, Echinochloa crusgalli; conditions: Preemergence
Summary of the method: as §1

blackgrass [13] = assay: Test C postemergence; assay type: in vivo, Alopecurus myosuroides; conditions: 10 days
Summary of the method: as §1

blackgrass [14] = assay: Test C preemergence; assay type: in vivo, Alopecurus myosuroides; conditions: Preemergence
Summary of the method: as §1

barnyardgrass [15] = assay: Test D flooded paddy test; assay type: in vivo, Echinochloa crus-galli; conditions: 250 g ai/ha, applied to paddy water, visual rating after 13 to 14 days, scale 0 to 100 (0 no effect, 100 complete control)
Summary of the method: as §2

kochia [16] = assay: Test C postemergence; assay type: in vivo, Bassia scoparia; conditions: 10 days
Summary of the method: as §1

barnyardgrass [17] = assay: Test C postemergence; assay type: in vivo, Echinochloa crusgalli
Summary of the method: as §1

galium = assay: Test C postemergence; assay type: in vivo, Galium aparine; conditions: Postemergence, 10 days, visual 0 to 100 scale (0 no effect, 100 complete control)
Summary of the method: as §1

ryegrass, Italian [18] = assay: Test C postemergence; assay type: in vivo, Lolium multiflorum; conditions: Postemergence, 1000 g ai/ha, 10 days, visual 0 to 100 scale (0 no effect, 100 complete control)
Summary of the method: as §1

ragweed [19] = assay: Test C postemergence; assay type: in vivo, Ambrosia artemisiifolia; conditions: Postemergence, 1000 g ai/ha, 10 days, visual 0 to 100 scale (0 no effect, 100 complete control)
Summary of the method: as §1

[20] = 500 g ai/ha, postemergence, 0 to 100 scale (0 no effect, 100 complete control)
[21] = Preemergence, 125 g ai/ha, 0 to 100 scale, 0 no effect, 100 complete control
[22] = 125 g ai/ha, 0 to 100 scale, 0 no effect, 100 complete control
[23] = Postemergence, 500 g ai/ha, visual 0 to 100 scale (0 no effect, 100 complete control)
[24] = 500 g ai/ha, preemergence, 0 to 100 scale (0 no effect, 100 complete control)
[25] = 500 g ai/ha, visual rating after 10 days, 0 to 100 scale (0 no effect, 100 complete control)
[26] = Postemergence, 1000 g ai/ha, visual 0 to 100 scale (0 no effect, 100 complete control)
[27] = 1000 g ai/ha, visual rating after 10 days, 0 to 100 scale (0 no effect, 100 complete control)

Compound	Plant response rating, Rice (Flood) (rice)	Plant response rating, Ducksalad (Flood) (ducksalad)	Plant response rating, Sedge, Umbrella (Flood) (sedge, umbrella)	Plant response rating, Barnyardgrass (Flood) (barnyardgrass [15])	Plant response rating, Foxtail, Green (green foxtail [1]; [26])	Plant response rating, Ryegrass, Italian (ryegrass, Italian [18])	Plant response rating, Ryegrass, Italian (ryegrass, Italian [4]; [27])	Plant response rating, Horseweed (horseweed; [26])	Plant response rating, Kochia (kochia [5]; [27])	Plant response rating, Ragweed (ragweed [8]; [27])	Plant response rating, Foxtail, Green (green foxtail [9]; [27])	Plant response rating, Galium (galium; 1000 g ai/ha)	Plant response rating, Ragweed (ragweed [19])	Plant response rating, Pigweed, Palmer (pigweed, palmer [10]; [27])	Plant response rating, Pigweed, Palmer (pigweed, palmer [11]; [26])	Plant response rating, Barnyardgrass (barnyardgrass [12]; [27])	Plant response rating, Blackgrass (blackgrass [13]; [26])	Plant response rating, Blackgrass (blackgrass [14]; [27])	Plant response rating, Kochia (kochia [16]; [26])	other results
CCOC[C@H]1CN(C(=O)c2cc(-n3cnc(C(C)C)n3)cc3c2OCO3)c2cccc(Cl)c2O1 [Compound 400]	0	45	40	15	–	–	–	–	–	–	–	–	–	–	–	–	–	–	–	Plant response rating, Foxtail, Green (green foxtail [1]; [20]): 40; Plant response rating, Corn (corn [2]; postemergence, 0 to 100 scale (0 no effect, 100 complete control)): 50; Plant response rating, Corn (corn [3]; [21]): 0; Plant response rating, Ryegrass, Italian (ryegrass, Italian [4]; [22]): 60; Plant response rating, Horseweed (horseweed; [20]): 20; Plant response rating, Kochia (kochia [5]; [22]): 50; Plant response rating, Wheat (wheat; [21]): 0; Plant response rating, Oat, Wild (oat, wild [6]; [21]): 0; Plant response rating, Oat, Wild (oat, wild [7]): 20; Plant response rating, Ragweed (ragweed [8]; [22]): 30; Plant response rating, Foxtail, Green (green foxtail [9]; [22]): 70; Plant response rating, Soybean (soybean; [21]): 20; Plant response rating, Pigweed, Palmer (pigweed, palmer [10]; [22]): 100; Plant response rating, Pigweed, Palmer (pigweed, palmer [11]; [20]): 100; Plant response rating, Barnyardgrass (barnyardgrass [12]; [22]): 50; Plant response rating, Blackgrass (blackgrass [13]; [20]): 70; Plant response rating, Blackgrass (blackgrass [14]; [22]): 0; Plant response rating, Kochia (kochia [16]; [20]): 90; Plant response rating, Barnyardgrass (barnyardgrass [17]; 500 g ai/ha, postemergence, 10 days, 0 to 100 scale (0 no effect, 100 complete control)): 50
CC(C)c1ncn(-c2cc(O)c(O)c(C(=O)N3C[C@H](C)Oc4c(Cl)cccc43)c2)n1 [Compound 272, [(2S)-8-chloro-2-methyl-2,3-dihydro-1,4-benzoxazin-4-yl]-[2,3-dihydroxy-5-(3-isopropyl-1,2,4-triazol-1-yl)phenyl]methanone]	0	0	0	0	–	–	–	–	–	–	–	–	–	–	–	–	–	–	–	Plant response rating, Foxtail, Green (green foxtail [1]; [23]): 0; Corn plant response rating (crop injury, 0 = no effect, 100 = complete kill) at 500 g/ha (corn [2]; Zea mays, post-emergence, 240 h, Postemergence, visual 0 to 100 scale (0 no effect, 100 complete control)): 0%; Corn plant response rating (corn [3]; [24]): 0; Ryegrass, Italian plant response rating (ryegrass, Italian [4]; [24]): 0; Plant response rating, Horseweed (horseweed; [23]): 10; Kochia plant response rating (kochia [5]; [24]): 0; Wheat plant response rating (wheat; [24]): 0; Oat, Wild plant response rating (oat, wild [6]; [24]): 0; Ragweed plant response rating (ragweed [8]; [24]): 30; Foxtail, Green plant response rating (green foxtail [9]; [24]): 0; Plant response rating, Galium (galium; 500 g ai/ha): 0; Soybean plant response rating (soybean; [24]): 0; Pigweed, Palmer plant response rating (pigweed, palmer [10]; [24]): 90; Plant response rating, Barnyardgrass (barnyardgrass [12]; [25]): 0; pest or weed control at 500 g/ha (blackgrass [13]; Alopecurus myosuroides, post-emergence, 240 h, Postemergence, 500 g ai/ha, visual 0 to 100 scale (0 no effect, 100 complete control), read-out: Plant response rating, Blackgrass): 0%; Plant response rating, Blackgrass (blackgrass [14]; [25]): 0; Plant response rating, Barnyardgrass (barnyardgrass [17]; Postemergence, 500 g ai/ha, 10 days, visual 0 to 100 scale (0 no effect, 100 complete control)): 0
Cc1ncc(-c2cccc(C(=O)N3C[C@H](C)Oc4c(Cl)cccc43)c2)s1 [Compound 296]	0	0	0	0	80	30	80	60	90	70	100	100	80	100	90	100	80	50	90	Plant response rating, Barnyardgrass (barnyardgrass [17]; Postemergence, 1000 g ai/ha, 10 days, visual 0 to 100 scale (0 no effect, 100 complete control)): 50
Cc1cnn(-c2cccc(C(=O)N3C[C@H](C)Oc4c(Cl)cccc43)c2)c1 [Compound 207]	0	0	0	0	10	70	90	10	30	0	90	10	10	90	90	90	10	20	20	Plant response rating, Barnyardgrass (barnyardgrass [17]; Postemergence, 1000 g ai/ha, 0 to 100 scale, 0 no effect, 100 complete control): 30
